Article PMC11316798, “Signaling by a bacterial phytochrome histidine kinase involves a conformational cascade reorganizing the dimeric photoreceptor” (Nature Communications, 2024)

T1: PsBphP1 (Pseudomonas syringae group genomosp. 3, UniProt Q885D3)
T1 construct: gene bphP
T1 sequence (Q885D3 1-745): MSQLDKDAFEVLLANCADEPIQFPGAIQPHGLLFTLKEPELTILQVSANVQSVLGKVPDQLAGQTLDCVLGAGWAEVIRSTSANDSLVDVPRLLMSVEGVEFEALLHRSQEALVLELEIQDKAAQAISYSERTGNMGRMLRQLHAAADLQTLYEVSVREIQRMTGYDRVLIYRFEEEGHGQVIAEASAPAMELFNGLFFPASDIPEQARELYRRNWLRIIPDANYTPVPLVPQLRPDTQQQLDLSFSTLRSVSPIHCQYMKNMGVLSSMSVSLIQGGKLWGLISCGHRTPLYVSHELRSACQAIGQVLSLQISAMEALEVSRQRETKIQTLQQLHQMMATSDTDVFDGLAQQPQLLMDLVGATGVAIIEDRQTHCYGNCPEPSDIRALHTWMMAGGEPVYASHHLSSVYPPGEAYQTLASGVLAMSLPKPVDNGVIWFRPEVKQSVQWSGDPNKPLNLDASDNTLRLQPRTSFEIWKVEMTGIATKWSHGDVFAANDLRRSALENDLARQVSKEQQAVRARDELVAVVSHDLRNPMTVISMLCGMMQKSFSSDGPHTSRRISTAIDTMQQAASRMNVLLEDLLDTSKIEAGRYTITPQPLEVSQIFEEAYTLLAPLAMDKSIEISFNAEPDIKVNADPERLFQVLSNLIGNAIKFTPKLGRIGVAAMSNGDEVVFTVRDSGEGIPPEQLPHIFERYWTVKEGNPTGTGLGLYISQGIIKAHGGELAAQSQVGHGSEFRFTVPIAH

B1: Pseudomonas syringae bacteriophytochrome photoreceptor BphP1 (PsBphP1), full length, assembled with biliverdin (natural protein)
chain: GMSQLDKDAFEVLLANCADEPIQFPGAIQPHGLLFTLKEPELTILQVSANVQSVLGKVPDQLAGQTLDCVLGAGWAEVIRSTSANDSLVDVPRLLMSVEGVEFEALLHRSQEALVLELEIQDKAAQAISYSERTGNMGRMLRQLHAAADLQTLYEVSVREIQRMTGYDRVLIYRFEEEGHGQVIAEASAPAMELFNGLFFPASDIPEQARELYRRNWLRIIPDANYTPVPLVPQLRPDTQQQLDLSFSTLRSVSPIHCQYMKNMGVLSSMSVSLIQGGKLWGLISCGHRTPLYVSHELRSACQAIGQVLSLQISAMEALEVSRQRETKIQTLQQLHQMMATSDTDVFDGLAQQPQLLMDLVGATGVAIIEDRQTHCYGNCPEPSDIRALHTWMMAGGEPVYASHHLSSVYPPGEAYQTLASGVLAMSLPKPVDNGVIWFRPEVKQSVQWSGDPNKPLNLDASDNTLRLQPRTSFEIWKVEMTGIATKWSHGDVFAANDLRRSALENDLARQVSKEQQAVRARDELVAVVSHDLRNPMTVISMLCGMMQKSFSSDGPHTSRRISTAIDTMQQAASRMNVLLEDLLDTSKIEAGRYTITPQPLEVSQIFEEAYTLLAPLAMDKSIEISFNAEPDIKVNADPERLFQVLSNLIGNAIKFTPKLGRIGVAAMSNGDEVVFTVRDSGEGIPPEQLPHIFERYWTVKEGNPTGTGLGLYISQGIIKAHGGELAAQSQVGHGSEFRFTVPIAH
modifications: biliverdin (BV) covalently linked via a thioether linkage to Cys16
notes: PsBphP1, bacteriophytochrome histidine kinase of Pseudomonas syringae, full-length polypeptide, residues 1-745; One molecule for both light states: Pr (dark-adapted) and Pfr (red-light irradiated, ~80% Pfr); the state is named in each assay; Dimer as Pr; dimer-tetramer (dimer-of-dimers) equilibrium as Pfr; also called P. syringae BphP1; P. syringae BphP; not shown: His6, N-terminal, cleaved

What was measured:
[1] = target: T2, PsAlgB (mixed with PsBphP1) (Pseudomonas syringae group genomosp. 3, UniProt Q88AQ2); conditions: 1.5 mM ATP, 5 mM MgCl2, pH 7.5, 22 °C, 175 mM KSCN; needs PsBphP1 (Pr or Pfr); authors presume the ATPase is intrinsic to PsAlgB
T2 construct: gene algB

PsBphP1 = target: T1, PsBphP1; conditions: labelled compound; Pfr under red light; 150 uM ATP, 5 mM MgCl2, pH 7.5, 22 °C; phosphoacceptor His530
[2] = target: the molecule itself; test: cryo-EM structure; PsBphP1 as Pr (dark-adapted), 0.5 mg/mL, 175 mM KSCN, 10 mM 2-mercaptoethanol, 10 mM HEPES-NaOH pH 7.5; head-to-head dimer
[3] = target: the molecule itself; test: cryo-EM structure; PsBphP1 as Pfr (irradiated 10 min with 630-nm LED), 0.5 mg/mL, 175 mM KSCN, 10 mM 2-mercaptoethanol, 10 mM HEPES-NaOH pH 7.5; dimers (medial, splayed) and tetrameric dimer-of-dimers

T2 sequence (Q88AQ2 whole entry, one chain of several): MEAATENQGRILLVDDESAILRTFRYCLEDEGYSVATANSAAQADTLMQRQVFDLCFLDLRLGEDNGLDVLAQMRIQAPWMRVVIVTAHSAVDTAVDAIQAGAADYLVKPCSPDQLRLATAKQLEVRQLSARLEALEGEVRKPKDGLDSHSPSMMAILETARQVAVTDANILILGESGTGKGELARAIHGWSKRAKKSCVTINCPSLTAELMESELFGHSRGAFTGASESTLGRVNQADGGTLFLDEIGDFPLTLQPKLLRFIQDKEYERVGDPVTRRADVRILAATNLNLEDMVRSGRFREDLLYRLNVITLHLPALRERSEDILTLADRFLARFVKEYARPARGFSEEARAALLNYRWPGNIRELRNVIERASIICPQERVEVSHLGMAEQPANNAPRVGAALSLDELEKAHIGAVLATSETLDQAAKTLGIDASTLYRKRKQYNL

Molecule | SEC elution shift of ATP to ADP [1] | autophosphorylation with 32P-ATP, SDS-PAGE and phosphorimaging (PsBphP1) | stoichiometry N [2] | stoichiometry N [3]
Nc1ncnc2c1ncn2[C@@H]1O[C@H](COP(=O)(O)OP(=O)(O)OP(=O)(O)O)[C@@H](O)[C@H]1O [ATP] | the two proteins together elicited robust ATPase activity for PsAlgB | initial autophosphorylation of PsBphP1 required the predicted internal phosphoacceptor His530 | – | –
B1 | – | – | 2 | 4
